For one assay, the system named is A2780. The assay is described as follows: Cytotoxicity against human A2780 cells after 3 days by MTT assay. It counts as functional, cell-based. The note with it: A2780, 72 h.
The next assay has as its system MCF7. Kind of assay: Cytotoxicity against human MCF7 cells after 3 days by MTT assay. It counts as functional, cell-based. The note with it: MCF7, 72 h.
The next assay deals with A549. The assay is described as follows: Cytotoxicity against human A549 cells after 3 days by MTT assay. It counts as functional, cell-based. Particulars: A549, 72 h.
For the next assay, the system named is BGC-823. Kind of assay: Cytotoxicity against human BGC823 cells after 3 days by MTT assay. It counts as functional, cell-based. Particulars: BGC-823, 72 h.
In a further assay the test system is KETR3. Kind of assay: Cytotoxicity against human Ketr3 cells after 3 days by MTT assay. The class given is functional, cell-based. Particulars: KETR3, 72 h. Background: Tetrazolium dyes change colour on reduction, which living cells bring about.
Assay [1] relates to KB. The assay is described as follows: Cytotoxicity against human KB cells after 3 days by MTT assay. It counts as functional, cell-based. Particulars: 72 h.
Another assay deals with HeLa. Kind of assay: Cytotoxicity against human HeLa cells after 3 days by MTT assay. The class given is functional, cell-based. The note with it: 72 h.
For another assay, the system named is Bel-7402. The assay is described as follows: Cytotoxicity against human Bel7402 cells after 3 days by MTT assay. The class given is functional, cell-based. The note with it: Bel-7402, 72 h.
Another assay deals with HCT-8. The assay is described as follows: Cytotoxicity against human HCT8 cells after 3 days by MTT assay. The class given is functional, cell-based. The note with it: HCT-8, 72 h.
Assay [2] deals with KB. Kind of assay: Cytotoxicity against human KB cells. The class given is functional.
In a further assay the test system is LoVo. Kind of assay: Cytotoxicity against human LoVo cells. It counts as functional.

In brackets after ≈: the same amount, converted by molar mass.

Results on 16 molecules are retold here after ChEMBL document CHEMBL1681670, “Synthesis and cytotoxicity of (-)-renieramycin G analogs” (Bioorg Med Chem Lett, 2011).

Usually IC50 stands for the concentration that gives 50% inhibition. A higher IC50 goes with a need for much substance. As for `COC1=C(C)C(=O)C2=C(C1=O)[C@@H]1[C@@H]3CC4=C(C(=O)C(OC)=C(C)C4=O)[C@H](COC(C)=O)N3C(=O)[C@H](C2)N1C`, the IC50 with A2780 was 3.26 µM; with MCF7 it was 4.92 µM; in the assay with A549, 4.49 µM; in the assay on BGC-823, 4.27 µM; with KETR3 it was 4.58 µM; in the assay on KB [1], 2.25 µM. Further, the half-maximal inhibitory concentration (IC50) in the assay on HeLa turned out to be 2.68 µM; in the assay on Bel-7402, 3.96 µM; in the assay with HCT-8 it was 5.68 µM.

Regarding `C/C=C/C(=O)OC[C@H]1C2=C(C[C@H]3[C@H]4C5=C(C[C@@H](C(=O)N13)N4C)C(=O)C(C)=C(OC)C5=O)C(=O)C(C)=C(OC)C2=O`, the IC50 with A2780 was determined as 25.3 µM; in the assay with MCF7, 23.8 µM; in the assay on A549, 7.42 µM; in the assay with BGC-823 it was 10.7 µM; in the assay with KETR3 it was 17.2 µM; with KB [1], 5.28 µM. Further, the figures for the concentration for half-maximal inhibition (IC50) in the assay with HeLa, in the assay on Bel-7402 and in the assay with HCT-8 were 12.7 µM, 23.9 µM and 24.7 µM, respectively.

With `C/C=C/C=C/C(=O)OC[C@H]1C2=C(C[C@H]3[C@H]4C5=C(C[C@@H](C(=O)N13)N4C)C(=O)C(C)=C(OC)C5=O)C(=O)C(C)=C(OC)C2=O`, the concentration for half-maximal inhibition (IC50) is 2.44 µM with A2780; 2.54 µM in the assay with MCF7; 3.2 µM in the assay on A549; 3.5 µM with BGC-823; 3.86 µM in the assay on KETR3; 2.03 µM in the assay on KB [1]. Further, the half-inhibitory concentration (IC50) was determined as 2.43 µM in the assay with HeLa, 2.13 µM with Bel-7402 and 3.47 µM in the assay on HCT-8.

Turning to `COC1=C(C)C(=O)C2=C(C1=O)[C@@H]1[C@@H]3CC4=C(C(=O)C(OC)=C(C)C4=O)[C@H](COC(=O)c4cc(OC)c(OC)c(OC)c4)N3C(=O)[C@H](C2)N1C`, the half-maximal inhibitory concentration (IC50) was found to be 2.16 µM with A2780; 2.04 µM in the assay on MCF7; 2.23 µM in the assay with A549; 1.18 µM in the assay with BGC-823; 2.16 µM in the assay on KETR3; 1.79 µM with KB [1]. Moreover, the IC50 came out at 1.28 µM with HeLa, 2.26 µM in the assay on Bel-7402 and 2.73 µM in the assay with HCT-8.

Take `COC1=C(C)C(=O)C2=C(C1=O)[C@@H]1[C@@H]3CC4=C(C(=O)C(OC)=C(C)C4=O)[C@H](COC(=O)c4cc5ccccc5[nH]4)N3C(=O)[C@H](C2)N1C`: the IC50 came out at 3.8 µM in the assay with A2780; 3.88 µM with MCF7; 4.07 µM with A549; 2.6 µM in the assay with BGC-823; 4.42 µM with KETR3; 3.36 µM in the assay with KB [1]. The IC50 in the assay on HeLa was 2.7 µM; with Bel-7402 it was 4.59 µM; in the assay with HCT-8, 7.85 µM.

Take `COC1=C(C)C(=O)C2=C(C1=O)[C@@H]1[C@@H]3CC4=C(C(=O)C(OC)=C(C)C4=O)[C@H](COC(=O)c4cccnc4)N3C(=O)[C@H](C2)N1C`: the half-inhibitory concentration (IC50) in the assay on A2780 was determined as 12.2 µM; in the assay on MCF7, 17.4 µM; in the assay on A549, 5.94 µM; in the assay on BGC-823 it was 3.38 µM; in the assay on KETR3, 4.62 µM; in the assay on KB [1], 3.16 µM. Moreover, the IC50 in the assay with HeLa worked out at 3.39 µM; in the assay with Bel-7402 it was 6.47 µM; in the assay on HCT-8, 19.4 µM.

With `COC1=C(C)C(=O)C2=C(C1=O)[C@@H]1[C@@H]3CC4=C(C(=O)C(OC)=C(C)C4=O)[C@H](COC(=O)c4ccccc4)N3C(=O)[C@H](C2)N1C`, the IC50 in the assay with A2780 amounted to 3.07 µM; in the assay with MCF7, 4.94 µM; with A549, 3.88 µM; in the assay on BGC-823 it was 8.35 µM; in the assay with KETR3, 8.82 µM; in the assay on KB [1], 2.83 µM. Moreover, the IC50 in the assay on HeLa was 3.1 µM; with Bel-7402 it was 3.78 µM; in the assay on HCT-8, 6.06 µM.

As for `COC1=C(C)C(=O)C2=C(C1=O)[C@@H]1[C@@H]3CC4=C(C(=O)C(OC)=C(C)C4=O)[C@H](COC(=O)c4cccs4)N3C(=O)[C@H](C2)N1C`, the IC50 in the assay with A2780 came out at 1.44 µM; in the assay on MCF7 it was 1.86 µM; in the assay on A549, 0.71 µM; in the assay with BGC-823 it was 0.52 µM; with KETR3, 1.67 µM; in the assay with KB [1], 0.02 µM. Besides, the values for the IC50 with HeLa, in the assay with Bel-7402 and in the assay on HCT-8 were 0.47 µM, 1.6 µM and 1.48 µM, respectively.

Regarding `COC1=C(C)C(=O)C2=C(C1=O)[C@@H]1[C@@H]3CC4=C(C(=O)C(OC)=C(C)C4=O)[C@H](COC(=O)c4cccc5ccccc45)N3C(=O)[C@H](C2)N1C`, the IC50 in the assay on A2780 was 15 µM; in the assay with MCF7 it was 14.1 µM; with A549, 12.5 µM; in the assay with BGC-823, 17.5 µM; with KETR3, 13.8 µM; with KB [1], 5.41 µM. Further, the IC50 in the assay with HeLa is 7.58 µM; in the assay on Bel-7402 it was 10.9 µM; in the assay with HCT-8 it was 28 µM.

For the molecule `COC1=C(C)C(=O)C2=C(C1=O)[C@@H]1[C@@H]3CC4=C(C(=O)C(OC)=C(C)C4=O)[C@H](COC(=O)/C=C/c4ccc(OC)cc4)N3C(=O)[C@H](C2)N1C`, the IC50 in the assay with A2780 amounted to 4.16 µM; in the assay with MCF7, 3.74 µM; with A549 it was 8.34 µM; in the assay on BGC-823, 3.84 µM; in the assay with KETR3, 3.12 µM; in the assay on KB [1], 3.73 µM. In addition, the IC50 with HeLa came out at 2.81 µM; with Bel-7402 it was 7.28 µM; with HCT-8, 8.85 µM.

With `COC1=C(C)C(=O)C2=C(C1=O)[C@@H]1[C@@H]3CC4=C(C(=O)C(OC)=C(C)C4=O)[C@H](COC(=O)/C=C/c4ccc(F)cc4)N3C(=O)[C@H](C2)N1C`, the half-maximal inhibitory concentration (IC50) in the assay on A2780 turned out to be 15.8 µM; in the assay on MCF7, 9.67 µM; in the assay with A549, 8.32 µM; in the assay on BGC-823 it was 7.43 µM; in the assay on KETR3, 10.4 µM; in the assay with KB [1] it was 3.95 µM. Further, the IC50 in the assay on HeLa was found to be 9.99 µM; in the assay on Bel-7402, 14.2 µM; in the assay with HCT-8, 9.15 µM.

Take `COC1=C(C)C(=O)C2=C(C1=O)[C@@H]1[C@@H]3CC4=C(C(=O)C(OC)=C(C)C4=O)[C@H](COC(=O)/C=C/c4ccccc4)N3C(=O)[C@H](C2)N1C`: the IC50 in the assay on A2780 came to 5 µM; with MCF7, 3.55 µM; in the assay with A549, 5 µM; in the assay with BGC-823, 3.31 µM; in the assay with KETR3, 7.83 µM; with KB [1], 2.96 µM. Further, the IC50 worked out at 4.39 µM in the assay with HeLa, 2.3 µM in the assay with Bel-7402 and 5 µM in the assay on HCT-8.

In the case of `COC1=C(C)C(=O)C2=C(C1=O)[C@@H]1[C@@H]3CC4=C(C(=O)C(OC)=C(C)C4=O)[C@H](COC(=O)/C=C/c4cccnc4)N3C(=O)[C@H](C2)N1C`, the 50% inhibitory concentration (IC50) in the assay on A2780 came out at 2.24 µM; in the assay on MCF7 it was 2.23 µM; in the assay with A549 it was 2.05 µM; in the assay with BGC-823, 1.26 µM; with KETR3 it was 1.43 µM; with KB [1], 0.39 µM. Further, the IC50 in the assay on HeLa turned out to be 1.18 µM; in the assay on Bel-7402, 2.3 µM; in the assay with HCT-8 it was 2.05 µM.

Take `COC1=C(C)C(=O)C2=C(C1=O)[C@@H]1[C@@H]3CC4=C(C(=O)C(OC)=C(C)C4=O)[C@H](COC(=O)/C=C/c4ccc(OC)c(OC)c4OC)N3C(=O)[C@H](C2)N1C`: the IC50 in the assay with A2780 was 16.8 µM; in the assay with MCF7, 10.6 µM; in the assay on A549, 10.6 µM; with BGC-823 it was 9.34 µM; with KETR3, 9.29 µM; in the assay on KB [1], 8.22 µM. The 50% inhibitory concentration (IC50) with HeLa was 5.1 µM; in the assay on Bel-7402 it was 14 µM; in the assay on HCT-8, 12.4 µM.

On to `COC1=C(C)C(=O)C2=C(C1=O)[C@@H]1[C@@H]3CC4=C(C(=O)C(OC)=C(C)C4=O)[C@H](COC(=O)/C=C/c4cccc5ccccc45)N3C(=O)[C@H](C2)N1C`, for which the IC50 was 9.09 µM in the assay with A2780; 3.94 µM in the assay on MCF7; 5 µM with A549; 11.7 µM in the assay on BGC-823; 7.89 µM in the assay on KETR3; 8.67 µM with KB [1]. In addition, the values for the IC50 with HeLa, in the assay with Bel-7402 and in the assay with HCT-8 were 7.42 µM, 9.81 µM and 9.31 µM, respectively.

In the case of `C/C=C(/C)C(=O)OC[C@H]1C2=C(C[C@H]3[C@H]4C5=C(C[C@@H](C(=O)N13)N4C)C(=O)C(C)=C(OC)C5=O)C(=O)C(C)=C(OC)C2=O` [(-)-RENIERAMYCIN G], the concentration for half-maximal inhibition (IC50) in the assay on A2780 was 4.17 µM; with MCF7 it was 3.78 µM; with A549, 5 µM; with BGC-823, 3.37 µM; in the assay with KETR3 it was 3.42 µM; with KB [1] it was 3.3 µM. In addition, the IC50 with HeLa was 2.88 µM; with Bel-7402 it was 9.07 µM; with HCT-8, 8.81 µM. The results for the MIC against KB [2] and against LoVo were 0.5 µg/mL (≈ 0.886 µM) and 1 µg/mL (≈ 1.77 µM), respectively.
